Measurements taken from patent US20090099218A1, “SYNTHESIS OF NOVEL TUBULIN POLYMERIZATION INHIBITORS: BENZOYLPHENYLUREA (BPU) SULFUR ANALOGS” (priority 2007, published 2009).

Legend:
LnCaP = test: MTT growth inhibition, prostate cancer cell line LnCaP; format: cell-based, human; conditions: MTT assay, average of three independent experiments
Method: (§1) This MTT assay was carried using human prostate cancer cell lines CWR22R, LAPC-4 and LnCap using Promega cell titer 96 nonradioactive cell proliferation kits. Cells were trypsinized and centrifuged at 1000 rpm for 5 minutes and the supernatant was aspirated. Cells were resuspended with HBSS to a concentration of 10^6/ml. Cell suspension was diluted in serum containing medium to plate 2000 cells/well/0.2 ml. Cell suspension was transferred to sterile solution basin. Cells were plated using multichannel pipette set at 200 μl and incubated overnight for attachment. One plate was prepared for day 0 MTT assay as follows: 100 μl of media was removed from each well using multichannel pipette and 15 μl of MTT reagent was added. Plates were incubated at 37° C. for 4 hrs. […] of STOP solution was added to each well and incubated at room temperature for 1 hour. Absorbance was measured at 570 and 650 nm on plate reader. All the media from the remaining plates were carefully removed and the cells were treated with the media containing drug. MTT assays were done on days 0, 3, 5 and 7. In the preliminary screening […] BPU sulfur analogs 6l, 6h, 6n, 7d and 8h were screened and their activity was compared with compound 1.
(§2) Compounds with significant inhibitory activity in pancreatic cancer cells were further evaluated against prostate cancer cell lines in the MTT assay, (Mosmann, T., J. Immunol. Methods 65:55-63 (1983)) and the results were compared to those for compound 1 (Table 3).

CWR22R = test: MTT growth inhibition, prostate cancer cell line CWR22R; format: cell-based, human; conditions: MTT assay, average of three independent experiments
Miapaca2 = test: MTT growth inhibition, pancreatic cell line Miapaca2; format: cell-based; conditions: MTT assay, 96 h treatment, average of three independent experiments
Method: (§3) Eight of these analogs 6d, 6h, 6n, 6g, 7b, 7d, 8g, and 8h were tested for their cytotoxicity in seven pancreatic cell lines ASPC1, Panc1, Panc203, Panc430, Pane 1005, MiaPaca2, and HS766T using MTT assay. Cells were trypsinized, seeded at 5×10^3 cells/well in 96-well plate and allowed to grow for 24 hours before the treatment with exponential increasing concentrations of drugs in the presence of 10% FBS. After a 96-hours period of treatment, 20 μl of MTT solution (5 mg/ml in PBS) were added to each well, and the plates were then incubated for 3 hours at 37° C. Medium was then replaced with 100 μl of DMSO per well. Plates were shaken and the optical density was measured at 570 nm using a multiwell plate reader (Bio-Rad, Model 550, Bio-Rad Inc., Hercules, Calif.). Each experiment was performed in triplicate for each drug concentration and was carried out independently at least 3 times. The IC50 value was defined as the concentration needed for a 50% reduction in the absorbance calculated based on the survival curves. Response to drug treatment was assessed by standardizing treatment groups to untreated controls. Compounds activity was compared with compound 1.
(§4) Table 2 (Growth Inhibition of Pancreatic Cancer Cell Lines by BPU and BPTU Analogues (IC50) a) compares the cytotoxicity of a series of new derivatives against a panel of seven pancreatic cancer cell lines, as determined by MTT assay. See, Mosmann, T., J. Immunol. Methods 65:55-63 (1983).

LAPC-4 = test: MTT growth inhibition, prostate cancer cell line LAPC-4; format: cell-based, human; conditions: MTT assay, average of three independent experiments
Method: as §1, §2

MCF-7 cells = test: Apoptosis of MCF-7 cells; format: cell-based; conditions: 48 hours
Panc203 = test: MTT growth inhibition, pancreatic cell line Panc203; format: cell-based; conditions: MTT assay, 96 h treatment, average of three independent experiments
Method: as §3, §4

Panc430 = test: MTT growth inhibition, pancreatic cell line Panc430; format: cell-based; conditions: MTT assay, 96 h treatment; average of three independent experiments
Method: as §3, §4

HS766 = test: MTT growth inhibition, pancreatic cell line HS766; format: cell-based; conditions: MTT assay, 96 h treatment, average of three independent experiments
Method: as §3, §4

Panc1 = test: MTT growth inhibition, pancreatic cell line Panc1; format: cell-based; conditions: MTT assay, 96 h treatment, average of three independent experiments
Method: as §3, §4

ASPC1 = test: MTT growth inhibition, pancreatic cell line ASPC1; format: cell-based; conditions: MTT assay, 96 h treatment, average of three independent experiments
Method: as §3, §4

Panc1005 = test: MTT growth inhibition, pancreatic cell line Panc1005; format: cell-based; conditions: MTT assay, 96 h treatment, average of three independent experiments
Method: as §3, §4

tubulin = test: Inhibition of tubulin polymerization; format: biochemical; conditions: Tubulin was at 10 μM; read-out: tubulin IC50 ± SD (inhibition of tubulin polymerization)
Method: Briefly, tubulin polymerization was followed turbidimetrically at 350 nm in Beckman model DU7400 and DU7500 recording spectrophotometers equipped with electronic temperature controllers. […] Samples were pre-incubated for 15 min at 30° C. and chilled on ice. GTP (final concentration, 0.4 mmol/L) was added to each reaction mixture, and these were placed in cuvettes held at 0° C. Baselines were established, the temperature was raised to 30° C.

[1] = test system: seven pancreatic cell lines; test: MTT cytotoxicity, panel of seven pancreatic cancer cell lines; format: cell-based; conditions: Pancreatic cancer cell, all seven pancreatic cell lines
Method: as §3, §4

[2] = test system: pancreas cancer xenografts; test: In vivo growth inhibition of patient-derived pancreas cancer xenografts; design: species or system athymic nude mice
Method: Six-week-old female athymic nude mice (Harlan) were used. The research protocol was approved by the Johns Hopkins University Animal Care and Use Committee, and animals were maintained in accordance to guidelines of the American Association of Laboratory Animal Care. Surgical non-diagnostic specimens from patients who had undergone surgery at the Johns Hopkins Hospital were implanted s.c. in one to two mice for each patient, with two small pieces per mouse (F1 generation). Tumors were grown to 1.5 cm^3 and then harvested, divided into small ˜3×3×3 mm pieces, and transplanted to another five mice, with two tumors per mouse (F2 generation). After a second growth passage, tumors were excised and propagated to cohorts of ≧20 mice. These groups constituted the F3, or treatment cohort. Tumors from this third mouse-to-mouse passage were allowed to grow to ˜200 mm3, at which time mice were randomized into three treatment groups, with five to six mice (10 evaluable tumors) in each group: control (vehicle), 6n (50 mg/kg i.p. twice per week), and 7d (50 mg/kg i.p. twice per week). Docetaxel treatment was given to selected groups at a dose of 30 mg/kg i.p. once a week for 2 weeks. Mice were monitored daily for signs of toxicity and were weighed thrice per week. Tumor size was evaluated twice per week by caliper measurements using the following formula: tumor volume=[length×width^2]/2. Relative tumor growth inhibition was calculated by relative tumor growth of treated mice divided by relative tumor growth of control mice from the onset of therapy (T/C).
To assess the treatment effect, a hierarchical linear regression model was used with random intercepts and fixed slopes. Based on the results of exploratory plots, the assumption of fixed effects for slopes seemed reasonable. This model allowed for mouse effects to be nested within patient effects so that the hierarchical structure is fully accounted for. Specifically, the following linear regression model was fitted: log(γiJt)=a1ijtimeijt+b2jtimeijt×trtij+βtime^2ijt+eijt where j indexes patient, i indexes mouse, and t indexes time; yijt is the percentage change in tumor volume (compared with day 0) in mouse i, which is a xenograft for patient j at time t; and trtij is treatment (1=treated, 0=control) received by mouse i, which is a xenograft for patient j. […] An intercept and main effect of treatment were not included in the model that makes two assumptions: (a) at time 0, the change from baseline is 0 (which is empirically true), and (b) at baseline, the treated and untreated curves intersect. The model was fit using Win-Bugs software that estimates models using a Markov chain Monte Carlo estimation procedure. A burn-in of 10,000 iterations was done, and then the chain was run for an additional 20,000 iterations, of which every 10th iteration was saved for inference. Several chains were run with different starting values to ensure convergence. No convergence issues arose. The fitted model was used to make inferences with respect to the treatment effect and to create fitted regression lines (rescaled on the Y-axis for clearer interpretation). Point estimates of variables of interest (e.g., expected difference in tumor volume between treated and control at 28 days) and 95% credible intervals were based on the mean of posterior distributions and the 2.5th and 97.5th quantiles of the posterior distribution, respectively. The comparisons between means and proportions obtained from the biological studies were done using Student's t-test and χ^2 method, respectively. ANOVA was used when three or more variables were compared.
Tumors from nine cases of pancreatic cancer were used to establish xenografts in nude mice, and the animals were treated with either vehicle, 6n, or 7d (FIG. 36A). The level of efficacy varied both between drugs and within cases treated with each drug. FIG. 37 provides an integrated summary of all data points obtained in the studies. […]

SMILES	IC50 (Panc430) [µM]	IC50 (Miapaca2; Homo sapiens, MIA PaCa-2) [µM]	IC50 (Panc203; Homo sapiens, Panc203) [µM]	IC50 (HS766; Homo sapiens, Hs 766) [µM]	IC50 (Panc1; Homo sapiens, PANC-1) [µM]	IC50 (ASPC1; Homo sapiens, ASPC1) [µM]	IC50 (Panc1005; Homo sapiens, Panc1005) [µM]	IC50 (LnCaP; Homo sapiens, LNCaP) [µM]	IC50 (CWR22R; Homo sapiens, 22Rv1) [µM]	IC50 (LAPC-4; Homo sapiens, LAPC4) [µM]	also measured
Cc1cc(NC(=O)NC(=O)c2ccccc2N(C)C)ccc1Oc1ncc(Br)cn1 [Compound 1, reference compound]	0.8										IC50 (LnCaP): 0.5 µM; IC50 (CWR22R): 1 µM; IC50 (Miapaca2): 0.85 µM; IC50 (LAPC-4): 0.25 µM; rate of apoptosis (MCF-7 cells; 10 nM): 16.1%; rate of apoptosis (MCF-7 cells; 30 nM): 19.5%; rate of apoptosis (MCF-7 cells; 100 nM): 27.7%; IC50 (Panc203): 0.95 µM; IC50 (HS766): 1 µM; IC50 (Panc1): 0.7 µM; IC50 (ASPC1): 0.85 µM; IC50 (Panc1005): 5 µM
Brc1cnc(Sc2ccc(N=CON=COc3ccccc3)cc2)nc1 [Compound 6g]	2	5	7.5	5.5	> 10	> 10	> 10				
Brc1cnc(Sc2ccc(N=CSN=COc3ccccc3)cc2)nc1 [Compound 6h]	7.5	10	> 10	8.5	9.5	10	> 10	> 10	> 10	6	
O=[N+]([O-])c1ccccc1OC=NOC=Nc1ccc(Sc2ncccn2)cc1 [Compound 6l]								0.5	5	0.6	
Nc1ccccc1OC=NOC=Nc1ccc(Sc2ncccn2)cc1 [Compound 7b]	6.5	7	5.5	8	7.5	6	> 10				
Nc1ccccc1C(=O)NC(=O)Nc1ccc(Oc2nccc(Br)n2)cc1 [Compound 7c]	> 10										IC50 (LnCaP): 0.75 µM; IC50 (CWR22R): 2 µM; IC50 (Miapaca2): 0.92 µM; IC50 (LAPC-4): 0.75 µM; IC50 (tubulin): 36 ± 0.7 µM; IC50 (Panc203): > 10 µM; IC50 (HS766): 0.27 µM; IC50 (Panc1): 3.5 µM; IC50 (ASPC1): 5.2 µM; IC50 (Panc1005): > 10 µM
O=[N+]([O-])c1ccccc1OC=NOC=Nc1ccc([S+]([O-])c2ncc(Br)cn2)cc1 (stereo not drawn) [Compound 8g]	5.5	8	5.5	6.5	6.5	2.5	5.5				IC50 [1]: 2.5 to 8 µM
O=C(NC(=O)c1ccccc1[N+](=O)[O-])Nc1ccc(S(=O)(=O)c2ncc(Br)cn2)cc1 [Compound 8h, 1-[4-(5-Bromopyrimidine-2-sulfonyl)phenyl]-3-(2-nitrobenzoyl)-urea]	> 10	6.1	> 10	> 10	> 10	> 10	> 10	0.5	> 10	4	
CC(=O)O[C@@]12CO[C@@H]1C[C@H](O)[C@@]1(C)C(=O)[C@H](O)C3=C(C)[C@@H](OC(=O)[C@H](O)[C@@H](NC(=O)OC(C)(C)C)c4ccccc4)C[C@@](O)([C@@H](OC(=O)c4ccccc4)[C@H]21)C3(C)C [Docetaxel, docetaxel, reference compound]											efficacy in case 194 ([2]; case with the greatest expression of MAPT): inactive; efficacy in case 185 ([2]; docetaxel 30 mg/kg i.p. once a week for 2 weeks): lower efficacy than 6n; efficacy in case 215 ([2]; low MAPT-expressing case, docetaxel 30 mg/kg i.p. once a week for 2 weeks): particularly efficacious
